According to patent publication US20190382850A1, “METHOD FOR IDENTIFYING MITOCHONDRIAL DNA IN EXTRACELLULAR VESICLES AND TREATMENT OF MTDNA-RELATED DISORDERS AND CANCER” (Memorial Sloan-Kettering Cancer Center, priority 2017, published 2019):

Test system: ND1 DNA in EVs from patients
Experiment: mtDNA ND1 level (qPCR) in circulating EVs of patients before and after therapy
Format: in vivo, human
Conditions: FIG. 7d
Experimental: (Panel a), Dot plot of nuclear DNA copy number quantification as determined by qPCR for GAPDH gene in circulating EVs isolated from fresh collected plasma (5-8 ml) of 8 healthy controls and 20 luminal breast cancer patients at different stage of their disease (Table 5). Each point corresponds to a patient sample. (Panel b), Schematic and gel electrophoresis of whole mtDNA genome amplified in several patient derived circulating EV-DNA resulting from 46 overlapping PCR amplicons to cover all the mtDNA genome. (Panel c), mtDNA ND1 level change (Ct qPCR value from 2 ng of total EV-DNA) determined in the same patient (two different examples are reported) following time and therapy response (PR, partial response; Stable Disease; POD, progression of disease); (Panel d) mtDNA ND1 level change (Ct qPCR value from 2 ng of total EV-DNA) determined in two different patients (#1, #2) before and after a certain therapy. Data are reported as error bars, mean±s.d. of n=3 independent experiments. […]
DNA and cDNAs were amplified by quantitative PCR (qPCR) using the Applied Biosystem Viia™ 7 Real-Time PCR System in the Power SYBR® Green PCR Master Mix Buffer. […] For analysis, ΔΔct method was applied and fold change was calculated (2^−ΔΔct). […]

COc1cccc2c1C(=O)c1c(O)c3c(c(O)c1C2=O)C[C@@](O)(C(=O)CO)C[C@@H]3O[C@H]1C[C@H](N)[C@H](O)[C@H](C)O1 [Doxorubicin]
ND1 DNA level in EVs from patients receiving the therapy: higher
